{"source": "ChEMBL document CHEMBL6182945", "about": "“MMAE-Based Peptide-Drug Conjugates Targeting GPC3 for Precision Chemoradiotherapy in Hepatocellular Carcinoma” (J Med Chem, 2025)", "key": {"[1]": {"system": "Huh-7", "assay": "In vivo antitumor activity against human Huh-7 cells xenografted in female BALB/c mouse assessed as delay in tumor growth at 1 mg/kg, iv for 2 consecutive days, once a week for 3 weeks measured on day 22", "assay_type": "functional, organism-based", "conditions": "time 22.0 day"}, "[2]": {"system": "Hep 3B2", "assay": "Cell cycle arrest in human Hep3B cells assessed as accumulation of cells at G2/M phase at 10 nM measured after 24 hrs incubation by PI staining based flow cytometry (reference value: 23%)", "assay_type": "functional"}, "[3]": {"system": "LX-2", "assay": "Cell cycle arrest in human LX-2 cells assessed as accumulation of cells at G0/G1 phase at 10 nM measured after 24 hrs incubation by PI staining based flow cytometry (reference value: 48.42%)", "assay_type": "functional"}, "[4]": {"system": "Hep 3B2", "assay": "Cell cycle arrest in human Hep3B cells assessed as accumulation of cells at S phase at 30 nM measured after 24 hrs incubation by PI staining based flow cytometry (reference value: 28.91%)", "assay_type": "functional"}, "[5]": {"system": "LX-2", "assay": "Cell cycle arrest in human LX-2 cells assessed as accumulation of cells at S phase at 30 nM measured after 24 hrs incubation by PI staining based flow cytometry (reference value: 36.93%)", "assay_type": "functional"}, "[6]": {"system": "Hep 3B2", "assay": "Cell cycle arrest in human Hep3B cells assessed as accumulation of cells at G0/G1 phase at 10 nM measured after 24 hrs incubation by PI staining based flow cytometry (reference value: 48%)", "assay_type": "functional"}, "[7]": {"system": "Huh-7", "assay": "In vivo antitumor activity against human Huh-7 cells xenografted in female BALB/c mouse assessed as reduction in tumor volume at 1 mg/kg, iv total 4 doses measured on day 17 relative to control", "assay_type": "functional", "parameters": "scale not given: the % may be the effect or the level left", "conditions": "time 17 day"}, "[8]": {"system": "Huh-7", "assay": "In vivo antitumor activity against human Huh-7 cells xenografted in female BALB/c mouse assessed as reduction in Ki67 expression in tumor at 2 mg/kg, iv total 4 doses measured on day 17 relative to control", "assay_type": "functional, organism-based", "conditions": "time 17.0 day"}, "[9]": {"system": "Huh-7", "assay": "Cell cycle arrest in human Huh-7 cells assessed as accumulation of cells at phase G2/M at 50 nM measured after 24 hrs incubation by PI staining based flow cytometry (reference value: 18.42%)", "assay_type": "functional"}, "[10]": {"system": "Huh-7", "assay": "In vivo antitumor activity against human Huh-7 cells xenografted in female BALB/c mouse assessed as reduction in tumor volume at 0.5 mg/kg, iv total 4 doses measured on day 17 relative to control", "assay_type": "functional", "parameters": "scale not given: the % may be the effect or the level left", "conditions": "time 17 day"}, "[11]": {"system": "LX-2", "assay": "Cell cycle arrest in human LX-2 cells assessed as accumulation of cells at S phase at 100 nM measured after 24 hrs incubation by PI staining based flow cytometry (reference value: 36.93%)", "assay_type": "functional"}, "[12]": {"system": "Huh-7", "assay": "Cell cycle arrest in human Huh-7 cells assessed as accumulation of cells at S phase at 100 nM measured after 24 hrs incubation by PI staining based flow cytometry (reference value: 33.15%)", "assay_type": "functional"}, "[13]": {"system": "Huh-7", "assay": "Cell cycle arrest in human Huh-7 cells assessed as accumulation of cells at G0/G1 phase at 100 nM measured after 24 hrs incubation by PI staining based flow cytometry (reference value: 47.97%)", "assay_type": "functional"}, "[14]": {"system": "LX-2", "assay": "Cell cycle arrest in human LX-2 cells assessed as accumulation of cells at G2/M phase at 10 nM measured after 24 hrs incubation by PI staining based flow cytometry (reference value: 14.65%)", "assay_type": "functional"}, "[15]": {"system": "Huh-7", "assay": "Cell cycle arrest in human Huh-7 cells assessed as accumulation of cells at G0/G1 phase at 30 nM measured after 24 hrs incubation by PI staining based flow cytometry (reference value: 47.97%)", "assay_type": "functional"}, "[16]": {"system": "Huh-7", "assay": "Cell cycle arrest in human Huh-7 cells assessed as accumulation of cells at G2/M phase at 100 nM measured after 24 hrs incubation by PI staining based flow cytometry (reference value: 18.88%)", "assay_type": "functional"}, "[17]": {"system": "Huh-7", "assay": "Cell cycle arrest in human Huh-7 cells assessed as accumulation of cells at S phase at 10 nM measured after 24 hrs incubation by PI staining based flow cytometry (reference value: 33.15%)", "assay_type": "functional"}, "[18]": {"system": "LX-2", "assay": "Cell cycle arrest in human LX-2 cells assessed as accumulation of cells at G0/G1 phase at 30 nM measured after 24 hrs incubation by PI staining based flow cytometry (reference value: 48.42%)", "assay_type": "functional"}}, "note": "The source made the active and inactive calls. The rule behind the calls is not given here."}
{"smiles": "CC[C@H](C)[C@@H]([C@@H](CC(=O)N1CCC[C@H]1[C@H](OC)[C@@H](C)C(=O)N[C@H](C)[C@@H](O)c1ccccc1)OC)N(C)C(=O)[C@@H](NC(=O)[C@H](C(C)C)N(C)C(=O)OCc1ccc(NC(=O)[C@H](CCCNC(N)=O)NC(=O)[C@@H](NC(=O)CCCCCN2C(=O)CC(SC[C@H](N)C(=O)N[C@@H](CO)C(=O)N[C@@H](CC(N)=O)C(=O)N[C@@H](CC(=O)O)C(=O)N[C@@H](CCCNC(=N)N)C(=O)N3CCC[C@@H]3C(=O)N3CCC[C@@H]3C(=O)N[C@@H](CC(N)=O)C(=O)N[C@H](C(=O)N[C@@H](CC(C)C)C(=O)N[C@@H](CCC(N)=O)C(=O)N[C@@H](CCCCN)C(=O)N[C@@H](CCCNC(=N)N)C(N)=O)[C@@H](C)CC)C2=O)C(C)C)cc1)C(C)C", "note": "(stereo partly drawn)", "values": [{"measurement": "Activity", "setting": "[1]", "result": "Active"}, {"measurement": "Activity", "setting": "[2]", "result": 39.22, "unit": "%"}, {"measurement": "Activity", "setting": "[3]", "result": 48.82, "unit": "%"}, {"measurement": "Activity", "setting": "[4]", "result": 26.35, "unit": "%"}, {"measurement": "Activity", "setting": "[5]", "result": 38.52, "unit": "%"}, {"measurement": "Activity", "setting": "[6]", "result": 41.26, "unit": "%"}, {"measurement": "Activity", "setting": "[7]", "result": 40, "unit": "%"}, {"measurement": "Activity", "setting": "[8]", "result": "Active"}, {"measurement": "Activity", "setting": "[9]", "result": 56.79, "unit": "%"}, {"measurement": "Activity", "setting": "[10]", "result": 15, "unit": "%"}, {"measurement": "Activity", "setting": "[11]", "result": 37.25, "unit": "%"}, {"measurement": "Activity", "setting": "[12]", "result": 11.54, "unit": "%"}, {"measurement": "Activity", "setting": "[13]", "result": 12.12, "unit": "%"}, {"measurement": "Activity", "setting": "[14]", "result": 13.04, "unit": "%"}, {"measurement": "Activity", "setting": "[15]", "result": 37.22, "unit": "%"}, {"measurement": "Activity", "setting": "[16]", "result": 76.34, "unit": "%"}, {"measurement": "Activity", "setting": "[17]", "result": 13.8, "unit": "%"}, {"measurement": "Activity", "setting": "[18]", "result": 46.22, "unit": "%"}]}
